The text below walks through data of patent US7910621B2, “Small molecule antagonists of XIAP family proteins” (The Regents of the University of Michigan, priority 2004, dated 2011).

pIC50: −log10 of the molar value.

For orientation: pIC50 means −log10 of the IC50, conventionally taken in molar units.

The subject of one test is Jurkat-Vec cells. Kind of test: Annexin V-FITC apoptosis assay, Jurkat-Vec. Particulars: combination with etoposide, 15 hours. The class given is cell-based. As for the experimental part: FIGS. 8A and 8B present (A): Dose-dependent induction of apoptosis by etoposide in Jurkat cells transfected with vector control (Jurkat-Vec) and stably transfected with XIAP (Jurkat-XIAP cells); and (B): Induction of apoptosis by etoposide and embelin alone and in combination in Jurkat-Vec and Jurkat-XIAP cells. 1×10^6 Jurkat-XIAP or Jurkat-Vec cells per well in 6-well culture plates were treated with etoposide and embelin alone, or in combination for 15 hours, then stained with Annexin V-FITC and propidium iodide for apoptosis by flow cytometry. The results are shown as percent of Annexin V-FITC positive apoptotic cells.
PC-3 cells, 1×10^6 cells per well in 6-well culture plates, were treated in triplicate with various concentrations of embelin for 24 or 48 hours, then trypsinized and washed with PBS. For Jurkat cells, 1×10^6 Jurkat-XIAP or Jurkat-Vec cells per well in 6-well culture plates, were treated with etoposide, embelin, or both for 15 hours. For flow cytometry apoptosis assay, cells were stained with Annexin V-FITC and propidium iodide using the Annexin-V-FLUOS Kit (Roche) according to the manufacturer's instruction. The fluorescence of Annexin V-FITC and propidium iodide of individual cells was analyzed by FACScan. The results are shown as percent of Annexin V-FITC positive apoptotic cells.

Test [1] concerns the target T1, human XIAP-BIR3 domain (residues 241-356) (Homo sapiens, UniProt P98170).
T1 construct: The human XIAP-BIR3 domain (residues 241-356) fused to His-tag; His-tag (pET-28b); made in house; host or cells: Escherichia coli BL21(DE3)
Kind of test: 15N-HSQC NMR binding confirmation. Particulars: 100 μM protein, 100 μM embelin, 30° C. As for the experimental part: To conclusively confirm that embelin binds to the XIAP BIR3 domain where Smac and caspase-9 bind, and to rule out any potential false positive, an analysis using nuclear magnetic resonance (NMR) Heteronuclear Single Quantum Coherence Spectroscopy (HSQC) method was performed. The human XIAP-BIR3 domain (residues 241-356) fused to His-tag was expressed in M9 medium containing ^15N ammonium chloride to uniformly label protein with ^15N and was purified. ^15N HSQC NMR spectra were recorded with embelin and without embelin at 30° C. […]
The NMR experiments were performed on a Varian Inova 500 with pulse field gradient (PFG) HSQC, with the water flip back to maximize the signal intensity and to minimize the destruction from the water signal (see, e.g., Grzesiek, S., et al., J. Am. Chem. Soc. 115, 12593-94 (1993); Sheppard, G. S., et al., Abstr. Pap.-Am. Chem. Soc. 213, 81 (1997)) (300 μM XIAP, 50 mM phosphate buffer pH 7.3, 2 mM DTT at 25° C.). ^15N HSQC NMR spectra were recorded with samples containing 100 μM of the ^15N protein in 50 mM Tris (pH 7.2), 50 μM Zn(Cl)2, 1 mM DTT at 30° C. with 100 μM embelin and without it. […]

Test [2] relates to normal human prostate epithelial cells (PrEC). Kind of test: WST-1 cell growth inhibition assay, PrEC. The class given is cell-based. The following applies: 120 h, WST-1, five days. As for the experimental part:
(§1) FIG. 5 presents inhibition of cell growth by embelin in prostate cancer cells (PC-3 and LnCap) and its selectivity in normal human prostate epithelial cells (PrEC) and normal human fibroblast cell line, WI-38. 5000 cells per well in a 96-well cell culture plate were treated with various concentrations of embelin in triplicate. Five days later, the cell growth was measured by the WST-1 cell growth assay kit […] The cell growth results are expressed as the percent of control and calculated from the percent of absorbance of treated wells versus that of vehicle control.
(§2) Human prostate cancer cell lines (PC-3, LNCap, CL-1, DU-145), and normal human fibroblast cell line WI-38 were obtained from the American Type Culture Collection (ATCC), were grown and maintained in Dulbecco's modified Eagle's medium (DMEM) containing 10% FBS (Invitrogen Corporation). Normal human prostate epithelial cells (PrEC) were obtained from Clonetics (Cambrex Inc., MD) and maintained in the special medium provided by the company. […]
(§3) Cell growth was determined by the MTT-based assay using Cell Proliferation Reagent WST-1 (Roche) according to the manufacturer's instruction. […] Absorbance was measured with a plate reader at […] with correction at […]. The results are expressed as the percent of absorbance of treated wells versus that of vehicle control.

Test [3] concerns normal human fibroblast cell line WI-38. Kind of test: WST-1 cell growth inhibition assay, WI-38. The class given is cell-based. Particulars: 120 h, WI-38, WST-1, five days. As for the experimental part:
as §1, §2, §3
In general terms: Tetrazolium dyes change colour on reduction, which living cells bring about.

T1 sequence (P98170 241-356): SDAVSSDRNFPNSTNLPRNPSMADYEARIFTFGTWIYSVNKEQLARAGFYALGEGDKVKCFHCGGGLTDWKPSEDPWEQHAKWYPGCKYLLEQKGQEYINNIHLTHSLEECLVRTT

For the compound `CCCCCCCCCCCC1=C(O)C(=O)C=C(O)C1=O` [embelin], in the test with Jurkat-Vec cells, the “effect on etoposide-induced apoptosis in combination, compared to etoposide alone” value was “did not increase”. Further, the “binding site on XIAP BIR3 by 15N HSQC NMR” value in test [1] was “binds to the surface groove in the XIAP BIR3 domain where Smac and caspase-9 bind”. Moreover, the negative logarithm of the IC50 (pIC50) in test [2] was 4.70; in test [3] it was 4.71.
